{"source": "patent US20230414535A1", "about": "“PHARMACEUTICAL COMPOSITION COMPRISING UBIQUINONE-5 AND METHOD OF USE THEREOF” (The Trustees of Columbia University in the City of New York, priority 2021, published 2023)", "key": {"[1]": {"system": "isolated forebrain mitochondria", "test": "Oligomycin-induced state 4 respiration and ΔΨm in isolated forebrain mitochondria", "type": "biochemical", "settings": "for effect on GABA- or Ub5-induced respiration/leak: added after GABA or Ub5, picrotoxin 1 mM, PLP 10 mM", "method": "Turning to FIGS. 10a and b, oligomycin-induced state 4 was initiated in isolated forebrain mitochondria using succinate. Tracings of O2 consumption (FIG. 10a) with simultaneous ΔΨm measurement (FIG. 10b) are depicted. Numbers (FIG. 10a) are rates of respiration (nmol·mL-1·min-1·mg mitochondrial protein-1). GABA (10 mM) or Ub5 ([…]) were added. Aralar was inhibited with pyridoxal 5′-phosphate (PLP)(10 mM). Picrotoxin (GABAA receptor antagonist (1 mM)) and GABA or Ub5 alone served as controls. Black solid lines are slopes of ΔΨm prior to and after inhibitor. Decrease in respiration rate with concomitant stabilization or rise in ΔΨm indicates inhibition of leak. […] Thus, PLP blocked GABA import via Aralar. […] Aralar is best described as an aspartate-glutamate carrier within mitochondria. Aralar is the solute that exports aspartate from neuronal mitochondria in exchange for glutamate plus a proton. Thus, Aralar causes leak by translocating protons across the inner mitochondrial membrane during solute transport. Aralar causes leak that can degrade ΔΨm. Aralar is a neuronal transporter that sequesters GABA within the mitochondrial matrix. Many anesthetic agents bind to the GABAA receptor and potentiate GABAergic signaling."}, "isolated mitochondria": {"system": "isolated mitochondria", "test": "Complex II-dependent state 4 (leak) respiration with simultaneous mitochondrial membrane potential measurement", "type": "biochemical", "settings": "succinate in the presence of oligomycin, FIG. 1", "from_the_text": "FIGS. 1a-c are representative tracings of complex II-dependent state 4 respiration (leak respiration) using succinate in the presence of oligomycin are depicted above and tracings of simultaneously measured mitochondrial membrane potential (ΔΨ) are shown below, for (a) propofol, (b) decylubiquinone, and (c) ubiquinone-5;\nIn FIG. 1, representative tracings of Complex II-dependent state 4 respiration (leak respiration) using succinate in the presence of oligomycin are depicted in the top three curves and tracings of simultaneously measured mitochondrial membrane potential (ΔΨ) are shown in the bottom three curves. The numbers in the tracings above show rates of oxygen consumption (nmol·mL-1·min-1·mg mitochondrial protein-1). Addition of propofol (FIG. 1 a) decylubiquinone (DB) (FIG. 1b) or ubiquinone-5 (FIG. 1c) are indicated. ΔΨ was determined as a function of triphenylphosphonium (TPP+) concentration in the bath. […] This mechanism is highly reminiscent of the effect of the anesthetic, propofol (FIG. 1a), in isolated mitochondria."}, "[2]": {"system": "isolated perfused murine hearts", "test": "Surface ECG of isolated perfused murine hearts", "settings": "isolated perfused heart", "method": "In FIGS. 2a and 2b, surface ECGs were recorded continuously for isolated perfused murine hearts that were prepared and stabilized. Hearts were exposed to either decylubiquinone or ubiquione-5. […] Thus, quinone analogs suppressed electrical signaling in the heart in a reversible manner."}}, "data": [{"compound": "NCCCC(=O)O", "note": "[GABA]", "values": [{"measurement": "proton leak (respiration and ΔΨm)", "setting": "[1]; succinate, oligomycin-induced state 4, GABA (10 mM) or Ub5 (100 mM), FIG. 10", "result": "induced a slow increase in proton leak"}]}, {"compound": "Cc1ncc(COP(=O)(O)O)c(C=O)c1O", "note": "[PLP, pyridoxal 5′-phosphate]", "values": [{"measurement": "effect on ΔΨm after GABA or Ub5", "setting": "[1]; PLP 10 mM added after GABA or Ub5", "result": "stabilized ΔΨm"}, {"measurement": "effect on ΔΨm with Ub5", "setting": "[1]; PLP 10 mM added after Ub5", "result": "acutely increased ΔΨm"}, {"measurement": "effect on GABA- or Ub5-induced respiration/leak", "setting": "[1]", "result": "normalized respiration to pre-GABA or Ub5 levels"}]}, {"compound": "CCCCCCCCCCC1=C(C)C(=O)C(OC)=C(OC)C1=O", "note": "[decylubiquinone]", "values": [{"measurement": "proton leak (state 4 respiration)", "setting": "isolated mitochondria", "result": "increased proton leak"}, {"measurement": "mitochondrial membrane potential (ΔΨ)", "setting": "isolated mitochondria; determined via TPP+", "result": "decline in ΔΨ"}, {"measurement": "ECG upon cessation of exposure and washout", "setting": "[2]; after washout", "result": "sinus rhythm normalized"}, {"measurement": "surface ECG effect during exposure", "setting": "[2]; during exposure, FIG. 2", "result": "rapidly induced bradycardia that persisted throughout the duration of exposure"}]}, {"compound": "Picrotoxin", "values": [{"measurement": "effect on GABA- or Ub5-induced respiration/leak", "setting": "[1]", "result": "minimal effect"}]}]}
